According to patent US20090247511A1, “SYNERGISTIC INSECTICIDE AND FUNGICIDE MIXTURES” (BAYER CROPSCIENCE AG, priority 2006, published 2009):

Key:
[1] = tested on: Phaedon cochleariae larvae; test: Phaedon cochleariae larvae test (cabbage leaf dip, kill rate, Colby synergy)
Myzus persicae = Myzus persicae test (cabbage leaf dip, kill rate, Colby synergy); format: in vivo

Cn1cc(C(=O)Nc2ccccc2C2CC2C2CC2)c(C(F)F)n1 (stereo not drawn) [Compound (I-4)]
0%: Kill in % after 4d ([1]; Table B1, 200 ppm) | Kill in % after 6d ([1]; Table B2, 200 ppm, after 6 d) | Kill in % after 4d ([1]; Table B3, 200 ppm) | Kill in % after 4d ([1]; Table B3, 400 ppm) | Kill in % after 1d (Myzus persicae; Table A1, 200 ppm) | Kill in % after 1d (Myzus persicae; Table A2, 200 ppm)
